For orientation: melting point means the temperature of the solid-liquid transition.

The target in series [1] is T1, cloned human 5-HT6 receptor (Homo sapiens, UniProt P50406).
T1 construct: host or cells: HeLa cells, G-418 selection, membrane preparation
In words: 5-HT6 Receptor Binding Assay ([3H]-LSD radioligand, SPA). The settings on record: read-out: 5HT6 % inh @ 1 uM. The procedure: 5-HT6 Receptor Binding Assay
Hela cells containing the cloned human 5-HT6 receptor were acquired from Dr. David R. Sibley's laboratory in National Institute of Health (see Sibley, D. R., J. Neurochemistry, 66, 47-56, 1996). Cells were grown in high glucose Dulbecco's modified Eagle's medium, supplemented with L-glutamine, 0.5% sodium pyruvate, 0.3% penicillin-streptomycin, 0.025% G-418 and 5% Gibco fetal bovine serum and then were harvested, when confluent, in cold phosphate buffered saline.
Harvested intact cells were washed once in cold phosphate-buffered saline. The cells were pelleted and resuspended in 100 ml of cold 50 mM Tris, 5 mM EDTA and 5 mM EGTA, pH 7.4. Homogenization was with a Vir Tishear generator, 4 cycles for 30 seconds each at setting 50. The homogenized cells were centrifuged at […] for 10 minutes and the supernatant was removed. The pellet was resuspended in 100 ml of the above buffer and rehomogenized for 2 cycles. The rehomogenized cells were then centrifuged at […] for 10 minutes and the supernatant was removed. The combined supernatant (200 ml) was centrifuged at 23,000 RPM (80,000×g) for 1 hour in a Beckman Rotor (42.1 Ti). The membrane pellet was resuspended in […] of assay buffer containing HEPES 20 mM, MgCl2 10 mM, NaCl 150 mM, EDTA 1 mM, pH 7.4 and stored frozen in aliqouts at −70° C.
The radioligand binding assay used [^3H]-lysergic acid diethylamide (LSD). The assay was carried out in Wallac 96-well sample plates by the addition of 11 μl of the test sample at the appropriate dilution (the assay employed 11 serial concentrations of samples run in duplicate), 11 μl of radioligand, and 178 μl of a washed mixture of WGA-coated SPA beads and membranes in binding buffer. The plates were shaken for about 5 minutes and then incubated at room temperature for 1 hour. The plates were then loaded into counting cassettes and counted in a Wallac MicroBeta Trilux scintillation counter.
Binding Constant Determination may be obtained by performing serial dilutions, e.g., eleven dilutions, of test compounds into assay plates using the PE/Cetus Pro/Pette pipetter. These dilutions are followed by radioligand and the bead-membrane mixture prepared as described above. After obtaining the specifically bound cpm, the data are fit to a one-site binding model using GraphPad Prism ver. 2.0. Estimated IC50 values are converted to Ki values using the Cheng-Prusoff equation (Cheng, Y. C. et al., Biochem. Pharmacol., 22, 3099-108, 1973).

T1 sequence (P50406 whole entry): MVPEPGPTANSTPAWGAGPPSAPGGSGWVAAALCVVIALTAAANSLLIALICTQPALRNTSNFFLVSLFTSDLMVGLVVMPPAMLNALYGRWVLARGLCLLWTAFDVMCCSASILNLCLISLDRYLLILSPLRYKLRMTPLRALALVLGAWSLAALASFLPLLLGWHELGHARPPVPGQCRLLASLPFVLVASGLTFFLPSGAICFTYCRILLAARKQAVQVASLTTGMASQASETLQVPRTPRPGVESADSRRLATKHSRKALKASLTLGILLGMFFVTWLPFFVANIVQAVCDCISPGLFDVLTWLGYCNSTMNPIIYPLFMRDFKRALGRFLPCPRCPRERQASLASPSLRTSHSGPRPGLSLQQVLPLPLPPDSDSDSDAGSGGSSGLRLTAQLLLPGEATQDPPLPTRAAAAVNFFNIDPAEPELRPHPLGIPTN

`O=C(c1cccc(N2CCCNCC2)n1)N1CCC[C@H](Oc2ccccc2F)C1` [Example 40, (6-[1,4]Diazepan-1-yl-pyridin-2-yl)-[(S)-3-(2-fluoro-phenoxy)-piperidin-1-yl]-methanone] had a melting point of 158 to 159 °C. The inhibition at 1 µM in series [1] was found to be 100%.
On the same counts, the results for `Cc1ccc(O[C@H]2CCCN(C(=O)c3cccc(N4CCCNCC4)n3)C2)cc1` [Example 41, (6-[1,4]Diazepan-1-yl-pyridin-2-yl)-((S)-3-p-tolyloxy-piperidin-1-yl)-methanone] are 157.6 to 158.2 °C and 94.7%.
On the same counts, the results for `Cc1cccc(O[C@H]2CCN(C(=O)c3cccc(N4CCCNCC4)n3)C2)c1` [Example 42, (6-[1,4]Diazepan-1-yl-pyridin-2-yl)-((S)-3-m-tolyloxy-pyrrolidin-1-yl)-methanone] are 116 to 118 °C and 99.4%.
On the same counts, the results for `Cc1ccc(O[C@H]2CCN(C(=O)c3cccc(N4CCCNCC4)n3)C2)cc1` [Example 43, (6-[1,4]Diazepan-1-yl-pyridin-2-yl)-((S)-3-p-tolyloxy-pyrrolidin-1-yl)-methanone] are 90 to 92 °C and 97.7%.
Turning to `Cc1cccc(O[C@H]2CCCN(C(=O)c3cccc(N4CCCNCC4)n3)C2)c1` [Example 44, (6-[1,4]Diazepan-1-yl-pyridin-2-yl)-((S)-3-m-tolyloxy-piperidin-1-yl)-methanone], the melting point was in the range of 184 to 185.6 °C. Further, the inhibition at 1 µM in series [1] was 99.7%.
For the molecule `Cc1ccccc1O[C@H]1CCCN(C(=O)c2cccc(N3CCCNCC3)n2)C1` [Example 45, (6-[1,4]Diazepan-1-yl-pyridin-2-yl)-((S)-3-o-tolyloxy-piperidin-1-yl)-methanone], the melting point is 118 to 119.7 °C. Moreover, the inhibition at 1 µM in series [1] worked out at 95.4%.
On to `Cc1cccc(O[C@@H]2CCCN(C(=O)c3cccc(N4CCCNCC4)n3)C2)c1` [Example 48, (6-[1,4]Diazepan-1-yl-pyridin-2-yl)-((R)-3-m-tolyloxy-piperidin-1-yl)-methanone], for which the melting point was 158 to 160 °C. Besides, the inhibition at 1 µM in series [1] stood at 86.1%.
On the same counts, the results for `Cc1ccccc1O[C@@H]1CCN(C(=O)c2cccc(N3CCCNCC3)n2)C1` [Example 49, (6-[1,4]Diazepan-1-yl-pyridin-2-yl)-((R)-3-o-tolyloxy-pyrrolidin-1-yl)-methanone] are 102 to 104 °C and 89.9%.
On the same counts, the results for `O=C(c1cccc(N2CCCNCC2)n1)N1CCC[C@@H](Oc2cccc(F)c2)C1` [Example 50, (6-[1,4]Diazepan-1-yl-pyridin-2-yl)-[(R)-3-(3-fluoro-phenoxy)-piperidin-1-yl]-methanone] are 172 to 174 °C and 89.6%.
On the same counts, the results for `Cc1cccc([C@H]2CCCCN2C(=O)c2cccc(N3CCN(C)CC3)n2)c1` [Example 52, [6-(4-Methyl-piperazin-1-yl)-pyridin-2-yl]-((R)-2-m-tolyl-piperidin-1-yl)-methanone] are 142 to 142.5 °C and 96.3%.
In turn, `Cc1ccc(O[C@@H]2CCCN(C(=O)c3cccc(N4CCCNCC4)n3)C2)cc1` [Example 54, (6-[1,4]Diazepan-1-yl-pyridin-2-yl)-((R)-3-p-tolyloxy-piperidin-1-yl)-methanone] yielded a melting point of 140 °C. For the same molecule, the inhibition at 1 µM in series [1] stood at 86.4%.
On the same counts, the results for `CN1CCN(c2cccc(C(=O)N3CCCC[C@@H]3c3cccc(F)c3)n2)CC1` [Example 55, [(R)-2-(3-Fluoro-phenyl)-piperidin-1-yl]-[6-(4-methyl-piperazin-1-yl)-pyridin-2-yl]-methanone] are 122.7 to 123 °C and 94.2%.
On the same counts, the results for `CN1CCN(c2cccc(C(=O)N3CCCC[C@H]3c3ccccc3F)n2)CC1` [Example 56, [(S)-2-(2-Fluoro-phenyl)-piperidin-1-yl]-[6-(4-methyl-piperazin-1-yl)-pyridin-2-yl]-methanone] are 111.7 to 112.2 °C and 90.7%.
On the same counts, the results for `CN1CCN(c2cccc(C(=O)N3CCCC[C@@H]3c3ccccc3F)n2)CC1` [Example 57, [(R)-2-(2-Fluoro-phenyl)-piperidin-1-yl]-[6-(4-methyl-piperazin-1-yl)-pyridin-2-yl]-methanone] are 111.7 to 112 °C and 94%.
In the case of `CN1CCN(c2cccc(C(=O)N3CCCC(c4ccccc4F)C3)n2)CC1` (stereo not shown) [Example 58, [3-(2-Fluoro-phenyl)-piperidin-1-yl]-[6-(4-methyl-piperazin-1-yl)-pyridin-2-yl]-methanone], the melting point lay within 118 to 119 °C. Moreover, in series [1], the inhibition at 1 µM is 88.9%.
On the same counts, the results for `Cc1ccc(O[C@@H]2CCN(C(=O)c3cccc(N4CCCN(C)CC4)n3)C2)cc1` [Example 59, [6-(4-Methyl-[1,4]diazepan-1-yl)-pyridin-2-yl]-((R)-3-p-tolyloxy-pyrrolidin-1-yl)-methanone] are 108 to 110 °C and 76.2%.
On the same counts, the results for `Cc1ccccc1[C@@H](C)N(C)C(=O)c1cccc(N2CCN(C)CC2)n1` [Example 61, 6-(4-Methyl-piperazin-1-yl)-pyridine-2-carboxylic acid methyl-((R)-1-o-tolyl-ethyl)-amide] are 142 to 143 °C and 86.7%.
On the same counts, the results for `Cc1ccccc1[C@H]1CCCCN1C(=O)c1cccc(N2CCN(C)CC2)n1` [Example 62, [6-(4-Methyl-piperazin-1-yl)-pyridin-2-yl]-((R)-2-o-tolyl-piperidin-1-yl)-methanone] are 188 to 188.7 °C and 70%.
For the molecule `Cc1ccccc1[C@@H]1CCCCN1C(=O)c1cccc(N2CCN(C)CC2)n1` [Example 63, [6-(4-Methyl-piperazin-1-yl)-pyridin-2-yl]-((S)-2-o-tolyl-piperidin-1-yl)-methanone], the melting point fell in the range of 136.7 to 137.2 °C. For the same molecule, the inhibition at 1 µM in series [1] is 77.4%.
On the same counts, the results for `CN1CCN(c2cccc(C(=O)N(C)Cc3ccccc3F)n2)CC1` [Example 64, 6-(4-Methyl-piperazin-1-yl)-pyridine-2-carboxylic acid (2-fluoro-benzyl)-methyl-amide] are 80 to 81 °C and 87.6%.
Regarding `CN1CCN(c2cccc(C(=O)N(C)Cc3ccccc3Cl)n2)CC1` [Example 65, 6-(4-Methyl-piperazin-1-yl)-pyridine-2-carboxylic acid (2-chloro-benzyl)-methyl-amide], the melting point was 73 to 74 °C. In addition, the inhibition at 1 µM in series [1] came to 89.6%.
On the same counts, the results for `Cc1ccc([C@H]2CCCCN2C(=O)c2cccc(N3CCN(C)CC3)n2)cc1` [Example 66, [6-(4-Methyl-piperazin-1-yl)-pyridin-2-yl]-((R)-2-p-tolyl-piperidin-1-yl)-methanone] are 143.3 to 144 °C and 82.1%.
With `CN1CCN(c2cccc(C(=O)N3CCCC[C@@H]3c3ccc(F)cc3)n2)CC1` [Example 67, [(R)-2-(4-Fluoro-phenyl)-piperidin-1-yl]-[6-(4-methyl-piperazin-1-yl)-pyridin-2-yl]-methanone], the melting point fell in the range of 130.8 to 131.5 °C. The inhibition at 1 µM in series [1] is 79.1%.
On the same counts, the results for `Cc1cccc(O[C@H]2CCN(C(=O)c3cccc(N4CCCN(C)CC4)n3)C2)c1` [Example 68, [6-(4-Methyl-[1,4]diazepan-1-yl)-pyridin-2-yl]-((S)-3-m-tolyloxy-pyrrolidin-1-yl)-methanone] are 78 to 80 °C and 98.2%.
On the same counts, the results for `CN1CCCN(c2cccc(C(=O)N3CC[C@H](Oc4ccccc4Cl)C3)n2)CC1` [Example 69, [(S)-3-(2-Chloro-phenoxy)-pyrrolidin-1-yl]-[6-(4-methyl-[1,4]diazepan-1-yl)-pyridin-2-yl]-methanone] are 90 to 92 °C and 97.7%.
In turn, `CN1CCN(c2cccc(C(=O)N(C)Cc3cccc(F)c3)n2)CC1` [Example 70, 6-(4-Methyl-piperazin-1-yl)-pyridine-2-carboxylic acid (3-fluoro-benzyl)-methyl-amide] gave a melting point of 77 to 78 °C. Also, the inhibition at 1 µM in series [1] amounted to 74.9%.

Source of the values: patent US20090197859A1 (Pfizer Inc., priority 2008, published 2009).
